How the values were obtained:
Assay type in all cases: in vivo
[1] = tested on: Tetranychus urticae; test: Tetranychus urticae spray test, OP-resistant; details: application rate 100 g/ha, all stages on bean leaf discs, after 6 days
Description: Solvent: 78.0 parts by weight of acetone • • 1.5 parts by weight of dimethylformamide Emulsifier: alkylaryl polyglycol ether […] To produce further test concentrations, the formulation is diluted with emulsifier-containing water. Discs of bean leaves (Phaseolus vulgaris) infested with all stages of the greenhouse red spider mite (Tetranychus urticae) are sprayed with an active ingredient formulation of the desired concentration.

[2] = tested on: Musca domestica; test: Musca domestica test; details: application rate 100 ppm, adult houseflies, kill after 2 days
Description: (§1) Solvent: dimethyl sulfoxide
(§2) To produce a suitable preparation of active compound, 10 mg of active compound are mixed with 0.5 ml of dimethyl sulfoxide, and the concentrate is diluted with water to the desired concentration.
Vessels containing a sponge treated with sugar solution and the active ingredient formulation of the desired concentration are populated with 10 adult houseflies (Musca domestica)).
After 2 days, the kill in % is determined. 100% means that all of the flies have been killed; 0% means that none of the flies have been killed.

[3] = tested on: Rhipicephalus sanguineus; test: Rhipicephalus sanguineus in vitro contact test with adult brown dog ticks; details: after 48 h, dead or moribund ticks
Description: After the solvent has evaporated off, the tubes are populated with 5-10 adult dog ticks (Rhipicephalus sanguineus), sealed with a perforated plastic lid and incubated in a horizontal position in the dark at room temperature and ambient humidity. After 48 h, efficacy is determined. To this end, the ticks are knocked to the base of the tube and incubated on a hotplate at 45-50° C. for not more than 5 min. Ticks which remain motionless on the base or move in such an uncoordinated manner that they are unable to deliberately avoid the heat by climbing upwards are considered to be dead or moribund.

[4] = tested on: Lucilia cuprina; test: Lucilia cuprina test; details: application rate 100 ppm, L1 larvae, kill after 2 days
Description: as §1, §2
About 20 L1 larvae of the Australian sheep blowfly (Lucilia cuprina) are transferred into a test vessel containing minced horsemeat and the active compound formulation of the desired concentration.
After 2 days, the kill in % is determined. 100% means that all the larvae have been killed; 0% means that no larvae have been killed.

[5] = tested on: Phaedon cochleariae; test: Phaedon cochleariae spray test; details: application rate 100 g/ha, larvae on Chinese cabbage leaf discs, after 7 days
Description: (§3) Solvent: 78.0 parts by weight of acetone • • 1.5 parts by weight of dimethylformamide Emulsifier: alkylaryl polyglycol ether […] To produce further test concentrations, the formulation is diluted with emulsifier-containing water. Discs of Chinese cabbage leaves (Brassica pekinensis) are sprayed with an active ingredient formulation of the desired concentration and, after drying, populated with larvae of the mustard beetle (Phaedon cochleariae).

[6] = tested on: Ctenocephalides felis; test: Ctenocephalides felis oral test; details: application rate 100 ppm in citrated cattle blood, kill after 2 days
Text: Solvent: dimethyl sulfoxide […] Dilution with citrated cattle blood gives the desired concentration. About 20 unfed adult cat fleas (Ctenocephalides felis) are placed into a chamber which is closed at the top and bottom with gauze. A metal cylinder whose bottom end is closed with parafilm is placed onto the chamber. The cylinder contains the blood/active ingredient formulation, which can be imbibed by the fleas through the parafilm membrane.

[7] = tested on: Spodoptera frugiperda; test: Spodoptera frugiperda spray test; details: application rate 100 g/ha, caterpillars on maize leaf discs, after 7 days
Description: as §3, with “Leaf discs” for “Discs”, “maize (Zea mays)” for “Chinese cabbage leaves (Brassica pekinensis)”, “compound” for “ingredient”, “caterpillars” for “larvae”, “armyworm (Spodoptera frugiperda).” for “mustard beetle (Phaedon cochleariae).”

[8] = tested on: Boophilus microplus; test: Boophilus microplus injection test; details: application rate 20 μg/animal, after 7 days, laying of fertile eggs
Description: Solvent: dimethyl sulfoxide […] The animals are transferred into dishes and kept in a climate-controlled room. Efficacy is assessed after 7 days by laying of fertile eggs. Eggs which are not visibly fertile are stored in a climate-controlled cabinet until the larvae hatch after about 42 days.

[9] = tested on: Ctenocephalides felis; test: Ctenocephalides felis in vitro contact test with adult cat fleas; details: application rate 5 μg/cm^2 (500 g/ha), after 48 h, dead or moribund fleas
Description: After the solvent has evaporated off, the tubes are populated with 5-10 adult cat fleas (Ctenocephalides felis), sealed with a perforated plastic lid and incubated in a horizontal position at room temperature and ambient humidity. After 48 h, efficacy is determined. To this end, the tubes are stood upright and the fleas are knocked to the base of the tube. Fleas which remain motionless at the base or move in an uncoordinated manner are considered to be dead or moribund.

Compound	efficacy [1] [%]	efficacy [2] [%]	efficacy ([3]; application rate 5 μg/cm^2 (500 g/ha)) [%]	efficacy [4] [%]	efficacy [5] [%]	efficacy [6] [%]	efficacy [7] [%]	efficacy [8] [%]	efficacy [9] [%]	efficacy ([3]; application rate 1 μg/cm^2 (100 g/ha)) [%]
COc1cc(C(=O)Nc2cc(-c3cnn(-c4c(C)cc(C(F)(C(F)(F)F)C(F)(F)F)cc4C(F)(F)F)c3)cnc2Cl)ccc1F [Example 24]	100	100	100	100	100	100	100	100	–	–
Cc1cc(C(F)(C(F)(F)F)C(F)(F)F)cc(C(F)(F)F)c1-n1cc(-c2ccc(F)c(NC(=O)c3ccncc3)c2F)cn1 [Example 25]	100	100	–	100	100	100	100	100	100	–
Cc1cc(C(F)(C(F)(F)F)C(F)(F)F)cc(C(F)(F)F)c1-n1cc(-c2ccc(F)c(NC(=O)C3(C)CC3)c2)cn1 [Example 30]	–	100	–	100	100	100	100	100	100	–
COc1cccc(C(=O)Nc2cc(-c3cnn(-c4c(C)cc(C(F)(C(F)(F)F)C(F)(F)F)cc4C(F)(F)F)c3)ccc2F)c1 [Example 32]	–	90	–	100	100	100	100	100	100	–
Cc1cc(C(F)(C(F)(F)F)C(F)(F)F)cc(C(F)(F)F)c1-n1cc(-c2ccc(F)c(NC(=O)c3ccc(C#N)nc3)c2)cn1 [Example 46]	–	100	–	100	100	100	100	100	100	–
Cc1cc(C(F)(C(F)(F)F)C(F)(F)F)cc(C(F)(F)F)c1-n1cc(-c2ccc(F)c(NC(=O)c3ccnc(F)c3)c2)cn1 [Example 51]	90	100	–	100	100	100	100	100	100	–
Cc1cnccc1C(=O)Nc1cc(-c2cnn(-c3c(C)cc(C(F)(C(F)(F)F)C(F)(F)F)cc3C(F)(F)F)c2)ccc1F [Example 54]	100	100	–	100	100	100	100	100	100	–
Cc1cc(C(F)(C(F)(F)F)C(F)(F)F)cc(C(F)(F)F)c1-n1cc(-c2cccc(NC(=O)c3ccncc3)c2F)cn1 [Example 68]	100	100	–	100	100	100	100	100	100	–
Cc1cc(C(F)(C(F)(F)F)C(F)(F)F)cc(C(F)(F)F)c1-n1cc(-c2cccc(NC(=O)c3ccc(C#N)nc3)c2F)cn1 [Example 69]	–	–	–	100	100	100	100	100	100	–
Cc1cc(C(F)(C(F)(F)F)C(F)(F)F)cc(C(F)(F)F)c1-n1cc(-c2cccc(NC(=O)c3cocn3)c2F)cn1 [Example 77]	–	100	–	100	100	100	100	100	–	100

— patent US10202351B2, “Pyrazolyl derivatives as pest control agents” (BAYER ANIMAL HEALTH GMBH, priority 2015, dated 2019)
